Results from patent US12161722B2, “Bifunctional heterocyclic compound having BTK degradation function via ubiquitin proteasome pathway, and use thereof” (KOREA RESEARCH INSTITUTE OF CHEMICAL TECHNOLOGY, priority 2021, dated 2024).

Legend:
WT BTK protein = molecular target: T1, WT BTK protein (Homo sapiens, UniProt Q06187); experiment: BTK protein degradation assay (Western blotting), WT BTK; type: cell-based; conditions: concentration range accounting for 50% degradation of WT BTK protein, TMD-8 or RAMOS cells, 24 hours
T1 construct: measured for intracellular BTK protein levels by Western blotting; endogenous in cells; host or cells: TMD-8 or RAMOS cells
T1 sequence (Q06187 whole entry): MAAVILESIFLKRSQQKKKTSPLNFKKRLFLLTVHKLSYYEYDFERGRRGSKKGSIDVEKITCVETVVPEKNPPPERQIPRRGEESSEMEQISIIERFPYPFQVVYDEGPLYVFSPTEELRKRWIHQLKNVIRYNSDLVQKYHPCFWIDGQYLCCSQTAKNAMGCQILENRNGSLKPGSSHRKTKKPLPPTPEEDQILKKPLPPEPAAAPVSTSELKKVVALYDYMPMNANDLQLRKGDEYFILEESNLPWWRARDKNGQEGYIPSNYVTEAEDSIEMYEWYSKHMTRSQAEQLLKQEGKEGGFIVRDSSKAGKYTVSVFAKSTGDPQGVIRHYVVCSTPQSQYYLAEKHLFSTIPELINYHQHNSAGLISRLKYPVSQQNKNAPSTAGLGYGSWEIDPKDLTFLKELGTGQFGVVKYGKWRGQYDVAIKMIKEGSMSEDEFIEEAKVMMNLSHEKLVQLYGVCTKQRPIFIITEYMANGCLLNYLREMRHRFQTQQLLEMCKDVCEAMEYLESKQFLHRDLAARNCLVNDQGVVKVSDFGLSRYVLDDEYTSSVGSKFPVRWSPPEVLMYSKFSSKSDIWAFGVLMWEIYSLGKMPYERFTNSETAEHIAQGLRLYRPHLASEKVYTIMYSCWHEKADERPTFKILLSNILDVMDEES
Summary of the method: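 TMD-8 cells (1×10^6 cells/mL) treated 24 h with compound serial dilutions, then lysed in RIPA. Equal protein loads analysed by Western blot for BTK with GAPDH/β-actin as loading controls; activity binned by concentration giving 50% WT BTK degradation.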

C481S BTK protein = molecular target: T2, C481S BTK protein (Homo sapiens, UniProt Q06187, C481S); experiment: BTK protein degradation assay (Western blotting), C481S BTK; type: cell-based; conditions: concentration range accounting for 50% degradation of C481S BTK protein, 293T BTK MUT (C481S) cells
T2 construct: expressed in transfected cells; host or cells: 293T BTK MUT (C481S) cells
T2 sequence (Q06187 whole entry C481S): as the sequence (Q06187 whole entry) above, with C481S counted along it
Summary of the method: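 TMD-8, RAMOS or 293T BTK C481S cells were treated 24 h with compounds from 10-fold DMSO stock series (10 to 0.0001 mM). BTK was measured by Western blot with GAPDH/β-actin references. Activity was binned by concentration giving 50% degradation: +++ (0.0001-0.01 μM), ++ (0.01-1 μM), + (1-10 μM), − (>10 μM).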

## COCCOc1cc(C)c(Nc2nn(C)c3nc(Nc4ccc5c(c4)C(C)(C)N(C(=O)CCC(=O)Nc4ccc(OCCOCCOCCOCCNc6cccc7c6C(=O)N(C6CCC(=O)NC6=O)C7=O)cc4)CC5)ncc23)c(C)c1 (stereo not shown) [Compound 6, N-(4-(2-(2-(2-(2-((2-(2,6-Dioxopiperidin-3-yl)-1,3-dioxoisoindolin-4-yl)amino)ethoxy)ethoxy)ethoxy)ethoxy)phenyl)-4-(7-((3-((4-(2-methoxyethoxy)-2,6-dimethylphenyl)amino)-1-methyl-1H-pyrazolo[3,4-d]pyrimidin-6-yl)amino)-1,1-dimethyl-3,4-dihydroisoquinolin-2 (1H)-yl)-4-oxobutanamide]
WT BTK protein
  DC50: 10 to 1000 nM
C481S BTK protein
  DC50: 10 to 1000 nM

## Cc1cccc(C)c1Nc1nn(C)c2nc(Nc3ccc4c(c3)CN(C(=O)C3CCN(C(=O)C5CCN(c6ccc7c(c6)C(=O)N(C6CCC(=O)NC6=O)C7=O)CC5)CC3)CC4)ncc12 (stereo not shown) [Compound 54, 5-(4-(4-(7-((3-((2,6-Dimethylphenyl)amino)-1-methyl-1H-pyrazolo[3,4-d]pyrimidin-6-yl)amino)-1,2,3,4-tetrahydroisoquinoline-2-carbonyl)piperidine-1-carbonyl)piperidin-1-yl)-2-(2,6-dioxopiperidin-3-yl)isoindoline-1,3-dione]
WT BTK protein
  DC50: 0.1 to 10 nM
C481S BTK protein
  DC50: 10 to 1000 nM
